In patent publication US12076331B2, “Inositol derivatives for use in pathological crystallization” (ETH Zurich, priority 2015, dated 2024):
“Also recorded” adds a separate entry of the source.

Key:
[1] = test system: transition of primary CPPs to secondary CPPs; experiment: calciprotein particle (CPP) maturation time in human serum (Pasch test, FIG. 1); details: human pooled serum, 37° C., nephelometer up to 600 minutes
Text: The y-axis indicates the half-maximal transition time (T50) in minutes of primary CPPs to secondary CPPs. IP6: myo-inositol hexakisphosphate (Biosynth); IS6: myo-inositol hexakissulfate (Sigma); IP2S4: 4,6-di-(O-phosphate)-myo-inositol 1,2,3,5-tetra-O-sulfate; IT2S4: 4,6-di-(O-thiophosphate)-myo-inositol 1,2,3,5-tetra-O-sulfate; IP5-PEG: 2-PEG(2000)-myo-inositol pentakisphosphate.
(§1) The inventors performed an in vitro assay that measures the propensity for calcification of human serum and has been clinically validated as a predictor of all-cause mortality in CKD patients and renal transplant recipients (as described in Pasch, Journal of the American
Society of Nephrology 23, 1744-1752, 2012). The experiment was carried out by mixing a calcium solution, human pooled serum, the test compound at the final concentration indicated and a phosphate solution, and the transition time of primary to secondary CPPs was measured at 37° C. using a nephelometer for up to 600 minutes.

[2] = test system: transition of primary CPPs to secondary CPPs; experiment: CPP maturation time in human serum, similar test with test compounds added last (FIG. 2); details: test compounds added to the reaction mixture last
Experimental: as §1
Society of Nephrology 23, 1744-1752, 2012). […], and the transition time of primary to secondary CPPs was measured at 37° C. using a nephelometer for up to 600 minutes.

[3] = In-solution screening of CaP precipitation and aggregation in artificial renal tubular fluid (RTF); format: physicochemical; details: 9 mM phosphate, 8 mM calcium, 4 h
Experimental: (§2) Effects of (A) OEG2-IP5, (B) OEG11-IP5, (C) (OEG2)2-IP4, (D) (OEG11)2-IP4 and (E) OEG8-(IP5)2. on CaP precipitation in RTF spiked with 9 mM disodium phosphate and 8 mM calcium chloride were assessed by light microscopy followed by automated image analysis at t=4 h. Quantification of the total area covered with CaP precipitates/total area field of view (N=3, mean+SD, normalized to the control).
as §2, with “mean size of aggregates/field” for “total area covered with CaP precipitates/total area field”, “view normalized to the ctrl” for “view”
Overview table showing the minimal concentration of compound (FIG. 3 for the chemical structures) required to achieve complete inhibition of CaP precipitation (total area covered with crystals <10% of total area control); and minimal concentration required to prevent CaP crystal aggregation in the CaP screening assay (CaP aggregate size <50% of aggregate size control) (N=3).
An artificial renal tubular fluid (RTF) with a final composition of 0.05 mM oxalate, 0.005 mM sulphate, 408 mM sodium, 424 mM chloride, 0.26 mM potassium, 4 mM magnesium and 0.2 mM citrate in double distilled water was prepared according to a literature report (Fasano, J. M. et al., Kidney Int. 59, 169-178. DOI: 10.1046/j. 1523-1755.2001.00477.x, 2001). The solution was filtered with a 0.45-μm syringe filter. Twenty mM Bis-Tris buffer was added to the reported protocol to ensure pH stability throughout experiments and pH was set to 7.2. The artificial RTF was stored at room temperature for up to four months. Stock solutions of 0.25 M phosphate and 1 M calcium were prepared in double distilled water and were stored separately at −20° C.
Twenty-x final concentration phosphate, 20× final concentration calcium and 10× final concentration compound dilutions were prepared in RTF. Assay mixture consisting of 80% RTF, 10% compound dilution, 5% phosphate dilution and 5% calcium dilution was prepared in Eppendorf tubes as follows. RTF (320 μL) was mixed with 20 μL phosphate dilution (final concentration of 9 mM), 40 μL compound dilution and 20 μL calcium dilution (final concentration of 8 mM). The assay mixture was vortexed after adding each component and 380 μL of the mixture were immediately added to 8-well glass bottom slides and incubated for 4 hat RT. CaP precipitation was assessed using a Leica DM 6000B microscope (Leica Microsystems, Wetzlar, Germany) in brightfield mode. For quantification 3 wells/condition with 3-4 images/well were imaged with a 40× objective. The total area covered with CaP deposits in percentage of the field of view and the mean size of CaP aggregates were determined.
In a first step, the influence of selected IP6 analogues (FIG. 5) on CaP precipitation and growth was assessed in vitro using artificial renal tubular fluid (RTF) (Table 1). In a previous study, the inventors investigated CaP protein particle formation in serum. However, an important difference to cardiovascular calcification lies in the extremely low protein content of the renal tubular fluid vs. the high abundance of proteins in blood, which can stabilize amorphous particles. Two cut-offs were chosen for assessing efficacy. First, complete inhibition was defined as a >90% reduction of detected CaP precipitates compared to the control sample without compound. Second, inhibition of CaP aggregation was defined as a >50% reduction of the mean size of aggregates when compared to the control.

[4] = test system: RPTEC/TERT 1 human proximal tubule cells; experiment: Imaging assay of CaP adhesion/deposition and cellular changes on RPTEC monolayers; format: cell-based; details: RPTEC, 7 mM phosphate, 5 mM calcium, 24 h
Text: (A) Heatmap and hierarchical clustering of extracted image features. (B) Selected single features describing cellular changes upon increasing (OEG2)2-IP4 concentrations are depicted. Total cell count, dead cell count, single cell area and single cell solidity, a measure of cell compactness, are shown. (C) Selected single features describing changes in the CaP deposition and membrane pattern upon increasing (OEG2)2-IP4 concentrations are depicted. The total area of the binary calcein staining, colorimetric quantification of calcium content extracted from the monolayer, the maximum intensity of the calcein fluorescence, structural similarity index metric (SSIM) and the correlation of the CellMask channel image are shown. (D) Example brightfield, calcein, CellMask and EthD channel images and two zoomed-in regions of interests (ROI) of RPTEC treated with 13 μM (OEG2)2-IP4 are shown. Mean scaled values per individual experiment are plotted (N=3). Pos.ctrl presents treatment with 5/7 mM Ca/P, neg.ctrl presents medium without Ca/P spiking (=1/1 mM Ca/P present in normal cell medium). Mean of three individual experiments and SD is plotted as grey horizontal and vertical line respectively, one-way ANOVA with Dunnet's multiple comparison between each concentration to pos. ctrl was performed (* p<0.01).
RPTEC/TERT 1 monolayers at confluence were treated with medium spiked with 7 mM disodium phosphate, 5 mM calcium chloride and compound and were incubated for 24 h. The amount of CaP deposits and the extent of cell injury were detected by calcein and EthD staining, respectively. Fluorescence images were quantified using Matlab. Quantification of the area covered with CaP deposition on RPTEC monolayers with (A) OEG2-IP5, (B) OEG11-IP5, (C) (OEG2)2-IP4, and (D) OEG8-(IP5)2 treatment. (N=3, mean+SD, one-way ANOVA with Dunnett's multiple comparison, * p<0.05, ** p<0.01, *** p<0.001).
RPTEC/TERT 1 human proximal tubule cells (RPTEC) were cultured in T75 tissue culture flasks using ProxUp basal medium mixed with ProxUp supplements at 37° C. and 5% CO2 according to manufacturer's recommendations. Cells were used up to passage 30 and regularly tested for Mycoplasma infections. For experiments, RPTEC were cultured in 24-well plates at a seeding density of 150′000 cells/cm^2. Cell viability assessment and cell counting before seeding was performed using an automated cell counter (BioRad TC 20, Hercules, CA, USA).
For the comparison of selected IP6 analogues, ProxUp basal medium was prepared with the selected inhibitor and added to each well. Then, CaP precipitation was induced by direct addition of first, phosphate and second, calcium. Final concentrations of 7 mM phosphate and 5 mM calcium were used. Cells were incubated for 24 h at 37° C. and 5% CO2. Spiked medium was removed, and cells were washed twice with PBS before staining.
For staining, ProxUp basal medium was mixed with calcein (500 nM final concentration), EthD (6 μM final concentration), CellMask stain ([…]) and Hoechst 33342. Staining mixture was added to RPTEC and cells were incubated for 30 min in the dark at 37° C. and 5% CO2. Staining solution was removed, cells were washed with PBS once and ProxUp basal medium was added. Cells were immediately imaged after staining. Images were obtained by epifluorescence microscopy at 37° C., using a Leica CTR6000 microscope. For quantification 3 wells/condition were prepared and 3 images/well were taken. For preliminary adhesion experiments images were taken with a 10× objective, for the imaging assay 20× objective images were taken.
Multichannel images were saved as individual channel images in 8-bit tiff format. For analysis Hoechst channel images were thresholded using the triangle threshold. Touching nuclei of the binary image were further segmented using the watershed algorithm with the distance transform of the binary image as input and local maxima thereof as seeds. […]

2-PEG(2000)-myo-inositol pentakisphosphate [Compound 2-PEG-IP5]
activity on half-maximal transition time (T50) of primary CPPs to secondary CPPs [1]: far more active than any other compound

COCCOCCO[C@@H]1C(OP(=O)(O)O)[C@H](OCCOCCOC)[C@@H](OP(=O)(O)O)C(OP(=O)(O)O)[C@H]1OP(=O)(O)O (stereo partly shown) [INS-3001]
activity on transition time of primary to secondary CPPs [2]: more active than IP6; also recorded: more active than the compounds having one PEG moiety

O=P(O)(O)OC1C(OS(=O)(=O)O)C(OP(=O)(O)O)C(OS(=O)(=O)O)C(OS(=O)(=O)O)C1OS(=O)(=O)O (stereo not shown) [IP2S4, 4,6-di-(O-phosphate)-myo-inositol 1,2,3,5-tetra-O-sulfate]
activity on half-maximal transition time (T50) of primary CPPs to secondary CPPs [1]: more active than IP6

O=P(O)(O)OC1[C@@H](OP(=O)(O)O)[C@H](OP(=O)(O)O)C(O)[C@H](OP(=O)(O)O)[C@H]1OP(=O)(O)O (stereo partly shown) [IP5, myo-inositol pentakisphosphate, reference compound]
concentration at which CaP precipitation was promoted [3]: 30 µM

O=P(O)(O)O[C@H]1[C@H](OP(=O)(O)O)[C@@H](OP(=O)(O)O)[C@H](OP(=O)(O)O)[C@@H](OP(=O)(O)O)[C@H]1OP(=O)(O)O [IP6, myo-inositol hexakisphosphate, reference compound]
concentration at which CaP precipitation was promoted [3]: 10 µM

O=S(=O)(O)OC1C(OS(=O)(=O)O)C(OS(=O)(=O)O)C(OS(=O)(=O)O)C(OS(=O)(=O)O)C1OS(=O)(=O)O (stereo not shown) [IS6, myo-inositol hexakissulfate, reference compound]
effect on CaP precipitation/crystallization in words [3]: weak inhibitory properties

O=S(=O)(O)O[C@@H]1[C@@H](OP(O)(O)=S)[C@H](OS(=O)(=O)O)[C@H](OS(=O)(=O)O)[C@H](OS(=O)(=O)O)[C@H]1OP(O)(O)=S [IT2S4, 4,6-di-(O-thiophosphate)-myo-inositol 1,2,3,5-tetra-O-sulfate]
activity on half-maximal transition time (T50) of primary CPPs to secondary CPPs [1]: more active than IP6

COCCOCCO[C@@H]1[C@@H](OP(=O)(O)O)[C@H](OP(=O)(O)O)[C@@H](OP(=O)(O)O)[C@@H](OP(=O)(O)O)[C@H]1OP(=O)(O)O [OEG2-IP5]
concentration for complete inhibition of CaP precipitation (>90% reduction of CaP precipitates vs control) [3]: 30 µM
concentration for inhibition of CaP aggregation (>50% reduction of mean size of aggregates vs control) [3]: 1 µM
concentration achieving complete inhibition of CaP adhesion [4]: 50 µM

COCCOCCOCCOCCOCCOCCOCCOCCOCCOCCOCCO[C@@H]1[C@@H](OP(=O)(O)O)[C@H](OP(=O)(O)O)[C@@H](OP(=O)(O)O)[C@@H](OP(=O)(O)O)[C@H]1OP(=O)(O)O [OEG11-IP5]
aggregation inhibitory concentration [3]: 300 nM
concentration achieving complete inhibition of CaP adhesion [4]: 50 µM

cyclohexane hexacarboxylic acid [IC6, reference compound]
effect on CaP precipitation/crystallization in words [3]: weak inhibitory properties
